Test results taken from patent US9683986B2, “Treatment of cancer by inhibition of the MYD88/ERK MAP kinase interaction” (CENTRE LEON BERARD, priority 2011, dated 2017).

Test system: HCT116 p53+/+ or p53−/− tumor
Assay: Subcutaneous HCT116 shMyD88 tumors in nude mice, doxycyclin-induced MyD88 extinction
Format: in vivo
Conditions: HCT116 cells stably expressing doxycyclin-inducible MyD88 shRNA, treated with doxycyclin
Description: Then we generated HCT116 p53+/+ or p53−/− stably expressing a doxycyclin-inducible MyD88 shRNA. These cell lines were subcutaneously implanted in nude mice, then the mice were treated or not with doxycyclin to induce MyD88 extinction in the tumor.

## MyD88 shRNA: doxycyclin-inducible MyD88 shRNA stably expressed in HCT116 cells (sense CGGACCCTAAATCCAATAGAAA; antisense TTTCTATTGGATTTAGGGTCCT)
  Tumor growth in vivo: blocks tumor growth in vivo
